Data: ChEMBL document CHEMBL1817626, “The structure-activity relationship of urea derivatives as anti-tuberculosis agents” (Bioorg Med Chem, 2011)
≈ marks a conversion by molar mass, not a printed value.

Legend:
[1] = target: T1, Hydrolase, alpha/beta hydrolase fold family (Mycobacterium tuberculosis) (UniProt O69638); test: Inhibition of Mycobacterium tuberculosis recombinant EphE expressed in Escherichia coli BL21 using CMNPC as substrate at 10 nM after 30 mins by fluorescent assay relative to control
T1 sequence (whole entry): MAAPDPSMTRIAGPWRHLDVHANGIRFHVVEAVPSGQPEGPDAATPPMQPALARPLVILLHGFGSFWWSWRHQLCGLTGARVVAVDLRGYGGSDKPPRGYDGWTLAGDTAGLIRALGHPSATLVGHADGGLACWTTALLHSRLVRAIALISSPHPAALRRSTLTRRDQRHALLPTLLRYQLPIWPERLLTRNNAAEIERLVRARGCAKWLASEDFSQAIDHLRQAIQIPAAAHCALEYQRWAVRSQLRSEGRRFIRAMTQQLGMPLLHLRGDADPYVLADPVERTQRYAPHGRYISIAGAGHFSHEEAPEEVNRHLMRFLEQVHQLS

[2] = system: Escherichia coli; test: Antibacterial activity against Escherichia coli K12; assay type: functional; settings: K-12
[3] = system: Klebsiella pneumoniae; test: Antibacterial activity against Klebsiella pneumoniae; assay type: functional
[4] = system: Mycolicibacterium smegmatis; test: microbe, parasite or virus in culture; settings: str. MC2 155, 168 h
[5] = system: Staphylococcus aureus; test: Antibacterial activity against Staphylococcus aureus; assay type: functional
[6] = target: T2, Bifunctional epoxide hydrolase 2 (Homo sapiens, UniProt P34913); test: Inhibition of human recombinant soluble epoxide hydrolase using CMNPC as substrate after 10 mins by fluorescent assay
T2 sequence (P34913 whole entry): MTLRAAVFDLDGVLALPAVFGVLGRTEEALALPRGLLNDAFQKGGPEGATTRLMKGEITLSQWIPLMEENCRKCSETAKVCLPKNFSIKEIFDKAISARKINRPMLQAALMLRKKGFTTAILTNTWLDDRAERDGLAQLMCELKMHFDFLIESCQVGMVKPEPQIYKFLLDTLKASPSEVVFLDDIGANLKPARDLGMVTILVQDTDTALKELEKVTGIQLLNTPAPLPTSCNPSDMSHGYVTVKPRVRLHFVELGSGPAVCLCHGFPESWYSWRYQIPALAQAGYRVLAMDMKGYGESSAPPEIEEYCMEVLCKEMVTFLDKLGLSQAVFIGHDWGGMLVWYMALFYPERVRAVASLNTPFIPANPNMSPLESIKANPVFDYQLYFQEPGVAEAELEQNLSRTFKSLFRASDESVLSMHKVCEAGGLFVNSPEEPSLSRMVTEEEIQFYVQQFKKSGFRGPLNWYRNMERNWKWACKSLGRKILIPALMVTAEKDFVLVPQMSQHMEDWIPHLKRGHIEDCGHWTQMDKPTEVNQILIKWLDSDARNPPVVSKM

[7] = system: Pseudomonas aeruginosa; test: Antibacterial activity against Pseudomonas aeruginosa; assay type: functional
[8] = system: Enterococcus faecium; test: Antibacterial activity against Enterococcus faecium; assay type: functional
[9] = system: Vero; test: Cytotoxicity against african green monkey Vero cells after 72 hrs by MTT assay; assay type: cell-based; settings: Chlorocebus sabaeus
[10] = system: Escherichia coli; test: Antibacterial activity against Escherichia coli […] TolC; assay type: functional
[11] = system: Mycobacterium tuberculosis; test: microbe, parasite or virus in culture; settings: H37Rv, 168 h
[12] = system: Bacillus anthracis; test: microbe, parasite or virus in culture
[13] = target: T3, Epoxide hydrolase B (Mycobacterium tuberculosis) (UniProt P95276); test: Inhibition of Mycobacterium tuberculosis recombinant EphB expressed in Escherichia coli BL21 using CMNPC as substrate at 10 nM after 30 mins by fluorescent assay relative to control
T3 sequence (whole entry): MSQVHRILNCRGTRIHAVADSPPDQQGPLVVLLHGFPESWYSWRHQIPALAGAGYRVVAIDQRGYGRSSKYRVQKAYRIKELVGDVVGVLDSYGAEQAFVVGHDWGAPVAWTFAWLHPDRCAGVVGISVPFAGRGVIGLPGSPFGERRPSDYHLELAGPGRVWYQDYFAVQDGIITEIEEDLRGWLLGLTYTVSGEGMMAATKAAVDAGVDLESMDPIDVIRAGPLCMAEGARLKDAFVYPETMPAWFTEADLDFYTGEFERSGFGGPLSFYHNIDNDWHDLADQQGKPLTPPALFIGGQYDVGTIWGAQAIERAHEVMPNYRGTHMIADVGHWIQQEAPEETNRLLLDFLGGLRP

[14] = system: Enterococcus faecalis; test: Antibacterial activity against Enterococcus faecalis; assay type: functional

SMILES | inhibition [1] | MIC [2] | MIC [3] | MIC [4] | MIC [5] | IC50 [6] | MIC [7] | MIC [8] | IC50 [9] | MIC [10] | MIC [11] | MIC [12] | inhibition [13] | MIC [14]
O=C(NCc1cccc(Cl)c1)Nc1cccc(C(F)(F)F)c1F | 15.5% | > 200 µg/mL | > 200 µg/mL | > 200 µg/mL | > 200 µg/mL | 3.7 nM | > 200 µg/mL | > 200 µg/mL | 193 µg/mL (≈ 557 µM) | > 200 µg/mL | 1.6 µg/mL (≈ 4.61 µM) | > 200 µg/mL | 16.6% | > 200 µg/mL
O=C(Nc1cccc(C(F)(F)F)c1F)NC1CCCCCCC1 | 56.3% | > 200 µg/mL | > 200 µg/mL | 0.4 µg/mL (≈ 1.2 µM) | > 200 µg/mL | 0.4 nM | > 200 µg/mL | > 200 µg/mL | 25.3 µg/mL (≈ 76.1 µM) | 25 µg/mL (≈ 75.2 µM) | 0.8 µg/mL (≈ 2.41 µM) | 3.12 µg/mL (≈ 9.39 µM) | 17% | > 200 µg/mL
Cc1c(Cl)cccc1NC(=O)NC1C2CC3CC(C2)CC1C3 (stereo not given) | 58.3% | > 200 µg/mL | > 200 µg/mL | > 100 µg/mL | > 200 µg/mL | 4.5 nM | > 200 µg/mL | > 200 µg/mL | 26.4 µg/mL (≈ 82.8 µM) | > 200 µg/mL | 1.6 µg/mL (≈ 5.02 µM) | > 200 µg/mL | 9.8% | > 200 µg/mL
O=C(NCC12CC3CC(CC(C3)C1)C2)Nc1ccc(F)c(F)c1F | 90.8% | > 200 µg/mL | > 200 µg/mL | 0.8 µg/mL (≈ 2.36 µM) | 3.12 µg/mL (≈ 9.22 µM) | 0.4 nM | 50 µg/mL (≈ 148 µM) | > 200 µg/mL | 1.18 µg/mL (≈ 3.49 µM) | 1.6 µg/mL (≈ 4.73 µM) | 0.01 µg/mL (≈ 0.0296 µM) | 1.6 µg/mL (≈ 4.73 µM) | 44.2% | > 200 µg/mL
COC(=O)c1ccc(NC(=O)NC23CC4CC(CC(C4)C2)C3)cc1O | 79.5% | > 200 µg/mL | > 200 µg/mL | 50 µg/mL (≈ 145 µM) | > 200 µg/mL | 1.2 nM | > 200 µg/mL | > 200 µg/mL | 30.3 µg/mL (≈ 88 µM) | > 200 µg/mL | 0.4 µg/mL (≈ 1.16 µM) | > 200 µg/mL | 26.9% | > 200 µg/mL
